Read-outs that look alike come from different tables or passages of the source.

In US20160257697A1, “THIOPHENE-SUBSTITUTED TETRACYCLIC COMPOUNDS AND METHODS OFUSE THEREOF FOR THE TREATMENT OF VIRAL DISEASES” (priority 2013, published 2016) one finds IC50 data, which are given here for 22 compounds.

What all share (assay): microbe, parasite or virus in culture
Common to all, as to format: cell-based, Hepatitis C virus (HCV)
Conditions in all cases: Replicon Assay A

Test [1] concerns HCV replicon 1AY93H. The procedure: (§1) To measure cell-based anti-HCV activity of compounds of the present invention, two complimentary assays were employed using various replicons. In the first assay (“Replicon Assay A”), replicon cells were seeded at 2000 cells/well in 384-well 384-well flat bottom tissue culture treated clear bottom plate (Corning 3707) in the presence of the test compound. […] The final concentration of DMSO was 0.5%. Fetal bovine serum was 5%, in the assay media. Cells were harvested on day 3 by removing media and washing the cells with a suitable wash buffer. The cells are lysed with the addition of 1× Qiagen lysis buffer (Cat #1062731). The replicon RNA level was measured using real time PCR (TaqMan® EZ RT-PCR, Applied Biosystems 403028) with the following primers and probes: […]
(§2) Cyclophilin RNA was used as endogenous control and was amplified in the same reaction as NS5B (multiplex PCR). The real-time RT-PCR reactions were run on ABI PRISM 7900HT Sequence Detection System using the following program: 50° C. for 2 minutes, 60° C. for 30 minutes, 95° C. for 5 minutes, 40 cycles of 94° C. for 20 sec, 55° C. for 1 minutes.
(§3) The amount of HCV replicon RNA per cell is quantified using a linear regression curve for a known nanogram (ng) amount of HCV replicon total RNA. This is established by plotting the Cycle Threshold values (Ct) from the Neo probe and primer set versus the log (ng) for each HCV replicon total RNA standard. The amount of HCV RNA for each replicon sample is calculated by taking the sample's Ct value, minus the line intercept, divided by the slope of the line. Similarly, the amount of Cyclophilin mRNA per cell is also quantified using a linear regression curve for a known nanogram (ng) amount of HCV replicon total RNA. Again, this is established by plotting the Cycle Threshold values (Ct) from the Cyclophilin probe and primer set versus the log (ng) for each HCV replicon total RNA standard.
(§4) Data for replicons 1A, 1AY93H and 2B were obtained using Replicon Assay A and data for replicons 1AQ30D and 1B were obtained using Replicon Assay B.

The test system of test [2] is HCV replicon 2B. The procedure: as §1, §2, §3, §4
Test [3] relates to HCV replicon 1A. As for the experimental part:
as §1, §2, §3, §4

[4] abbreviates: Hepatitis C virus, read-out: 1A Y93H IC50 (nM), replicon 1AY93H.
Where [5] appears, read: Hepatitis C virus, read-out: 2B IC50 (nM), replicon 2B.
Setting [6] is: read-out: 1A Y93H IC50, replicon 1AY93H.
[7] abbreviates: read-out: 2B IC50, HCV replicon 2B.
Where [8] appears, read: Hepatitis C virus, HCV replicon 1A.

Broadly, the IC50 is the concentration that inhibits the measured activity by half. For `COC(=O)N[C@H](C(=O)N1CCC[C@H]1c1ncc(-c2cc(F)c3c(c2)OC(c2ccc(CC4CC4)s2)n2c-3cc3cc(-c4cnc([C@@H]5CCCN5C(=O)[C@@H](NC(=O)OC)C(C)C)[nH]4)ccc32)[nH]1)C(C)C` (single isomer, unassigned) [Compound 53], the IC50 came out at 1.87 nM in test [1] (setting [4]) and 1.95 nM in test [2] (setting [5]).

Turning to `COC(=O)N[C@H](C(=O)N1CCC[C@H]1c1ncc(-c2cc(F)c3c(c2)OC(c2sc(C4CC4)cc2F)n2c-3cc3cc(-c4cnc([C@@H]5CCCN5C(=O)[C@@H](NC(=O)OC)C(C)C)[nH]4)ccc32)[nH]1)C(C)C` (single isomer, unassigned) [Compound 66], the IC50 was found to be 0.13 nM in test [1] (setting [6]) and 0.23 nM in test [2] (read-out: 2B IC50, replicon 2B).

As to `COC(=O)NC(C(=O)N1CCC[C@H]1c1ncc(-c2cc(F)c3c(c2)OC(c2ccc(C4CC4)s2)n2c-3cc3cc(-c4cnc([C@@H]5CCCN5C(=O)[C@@H](NC(=O)OC)C(C)C)[nH]4)ccc32)[nH]1)C(C)(C)F` (single isomer, unassigned) [Compound 68], the IC50 in test [1] (setting [6]) turned out to be 0.12 nM; in test [2] (read-out: 2B IC50, replicon 2B), 1.12 nM.

As for `COC(=O)N[C@H](C(=O)C1CCC[C@H]1c1ncc(-c2ccc3c(c2)cc2n3C(c3ccc(C(F)(F)F)s3)Oc3cc(-c4cnc([C@@H]5CCCN5C(=O)[C@@H](NC(=O)OC)C(C)C)[nH]4)cc(F)c3-2)[nH]1)C(C)C` (single isomer, unassigned) [Compound 90], the half-inhibitory concentration (IC50) in test [1] (setting [6]) worked out at 0.74 nM; in test [2] (read-out: 2B IC50, replicon 2B), 1.91 nM.

As for `COC(=O)N[C@H](C(=O)N1CCC[C@H]1c1ncc(-c2cc(F)c3c(c2)OC(c2ccc(CCC4CC4)s2)n2c-3cc3cc(-c4cnc([C@@H]5CCCN5C(=O)[C@@H](NC(=O)OC)C(C)C)[nH]4)ccc32)[nH]1)C(C)C` (single isomer, unassigned) [Compound 91], the figures for the IC50 in test [1] (setting [4]) and in test [2] (setting [5]) were 0.28 nM and 3.14 nM, respectively.

Regarding `COC(=O)NC(C(=O)N1CCC[C@H]1c1ncc(-c2cc(F)c3c(c2)OC(c2ccc(C4CC4)s2)n2c-3cc3cc(-c4cnc([C@@H]5C[C@H]6C[C@H]6N5C(=O)[C@@H](NC(=O)OC)C(C)C)[nH]4)ccc32)[nH]1)C(C)(C)F` (single isomer, unassigned) [Compound 99], the IC50 came out at 0.53 nM in test [1] (setting [6]) and 1.55 nM in test [2] (read-out: 2B IC50, replicon 2B).

`COC(=O)N[C@H](C(=O)N1CCC[C@H]1c1ncc(-c2cc(F)c3c(c2)OC(c2ccc(C4CC4(F)F)s2)n2c-3cc3cc(-c4cnc([C@@H]5CCCN5C(=O)[C@@H](NC(=O)OC)C(C)C)[nH]4)ccc32)[nH]1)C(C)C` (single isomer, unassigned) [Compound 118]: the half-maximal inhibitory concentration (IC50) in test [2] (read-out: 2B IC50, replicon 2B) turned out to be 0.97 nM; in test [3] (Hepatitis C virus, replicon 1A) it was 0.0012 nM.

For `COC(=O)N[C@H](C(=O)N1CCC[C@H]1c1ncc(-c2cc(F)c3c(c2)OC(c2ccc(C(CF)CF)s2)n2c-3cc3cc(-c4cnc([C@@H]5CCCN5C(=O)[C@@H](NC(=O)OC)C(C)C)[nH]4)ccc32)[nH]1)C(C)C` (single isomer, unassigned) [Compound 121], the IC50 amounted to 0.17 nM in test [2] (read-out: 2B IC50, replicon 2B) and 0.0012 nM in test [3] (replicon 1A).

As to `COC(=O)N[C@H](C(=O)N1CCC[C@H]1c1ncc(-c2cc(F)c3c(c2)OC(c2ccc(C(C)C(F)(F)F)s2)n2c-3cc3cc(-c4cnc([C@@H]5CCCN5C(=O)[C@@H](NC(=O)OC)C(C)C)[nH]4)ccc32)[nH]1)C(C)C` (single isomer, unassigned) [Compound 133], the IC50 in test [2] (read-out: 2B IC50, replicon 2B) was found to be 0.15 nM; in test [3] (replicon 1A) it was 0.002 nM.

`COC(=O)NC(C(=O)N1CCC[C@H]1c1ncc(-c2ccc3c(c2)cc2n3C(c3ccc(C4CC4)s3)Oc3cc(-c4cnc([C@@H]5CCCN5C(=O)[C@@H](NC(=O)OC)C(C)C)[nH]4)cc(F)c3-2)[nH]1)C1CCOC2(CC2)C1` (single isomer, unassigned) [Compound 176]: the IC50 is 0.046 nM in test [2] (read-out: 2B IC50, replicon 2B) and 0.0011 nM in test [3] (Hepatitis C virus, replicon 1A).

On to `COC(=O)NC(C(=O)N1CCC[C@H]1c1ncc(-c2ccc3c(c2)cc2n3C(c3ccc(C4CC4)s3)Oc3cc(-c4cnc([C@@H]5CCCN5C(=O)[C@@H](NC(=O)OC)C(C)C)[nH]4)cc(F)c3-2)[nH]1)C1CCOC2(CC2)C1` (single isomer, unassigned) [Compound 177], for which the IC50 worked out at 0.016 nM in test [2] (read-out: 2B IC50, replicon 2B) and 0.0014 nM in test [3] (replicon 1A).

As to `COC(=O)NC(C(=O)N1CCC[C@H]1c1ncc(-c2ccc3c(c2)cc2n3C(c3ccc(C4CC4)s3)Oc3cc(-c4cnc([C@@H]5CCCN5C(=O)[C@@H](NC(=O)OC)C(C)C)[nH]4)cc(F)c3-2)[nH]1)C1CCOC2(CC2)C1` (single isomer, unassigned) [Compound 178], the IC50 in test [2] (read-out: 2B IC50, replicon 2B) came to 3.4 nM; in test [3] (replicon 1A), 0.0017 nM.

In the case of `COC(=O)NC(C(=O)N1CCC[C@H]1c1ncc(-c2ccc3c(c2)cc2n3C(c3ccc(C4CC4)s3)Oc3cc(-c4cnc([C@@H]5CCCN5C(=O)[C@@H](NC(=O)OC)C(C)C)[nH]4)cc(F)c3-2)[nH]1)C1CCOC2(CC2)C1` (single isomer, unassigned) [Compound 179], the IC50 in test [2] (read-out: 2B IC50, replicon 2B) was 4.63 nM; in test [3] (replicon 1A) it was 0.0012 nM.

As for `COC(=O)NC(C(=O)N1[C@@H]2C[C@@H]2C[C@H]1c1ncc(-c2ccc3c(c2)cc2n3C(c3ccc(C(F)F)s3)Oc3cc(-c4cnc([C@@H]5CCCN5C(=O)[C@@H](NC(=O)OC)C(C)C)[nH]4)cc(F)c3-2)[nH]1)C1C[C@@H](C)O[C@@H](C)C1` (single isomer, unassigned) [Compound 286], the IC50 in test [2] (read-out: 2B IC50, replicon 2B) came to 0.018 nM; in test [3] (Hepatitis C virus, replicon 1A) it was 0.001 nM.

For the compound `COC(=O)N[C@H](C(=O)N1CCC[C@H]1c1ncc(-c2cc(F)c3c(c2)OC(c2ccc(C(C)CF)s2)n2c-3cc3cc(-c4cnc([C@@H]5CCCN5C(=O)[C@@H](NC(=O)OC)C(C)C)[nH]4)ccc32)[nH]1)C(C)C` (single isomer, unassigned) [Compound 333], the IC50 amounted to 0.0314 nM in test [2] (read-out: 2B IC50, replicon 2B) and 0.001 nM in test [3] (replicon 1A).

As to `COC(=O)NC(C(=O)N1CCC[C@H]1c1ncc(-c2ccc3c(c2)cc2n3C(c3ccc(C4CC4)s3)Oc3cc(-c4cnc([C@@H]5CCCN5C(=O)[C@@H](NC(=O)OC)C(C)C)[nH]4)cc(F)c3-2)[nH]1)C1CCO[C@@H](C)C1` (single isomer, unassigned) [Compound 401], the IC50 stood at 0.0064 nM in test [2] (read-out: 2B IC50, replicon 2B) and 0.0018 nM in test [3] (replicon 1A).

Take `COC(=O)NC(C(=O)N1CCC[C@H]1c1ncc(-c2ccc3c(c2)cc2n3C(c3ccc(C4CC4)s3)Oc3cc(-c4cnc([C@@H]5CCCN5C(=O)[C@@H](NC(=O)OC)C(C)C)[nH]4)cc(F)c3-2)[nH]1)C1CCO[C@@H](C)C1` (single isomer, unassigned) [Compound 402]: the IC50 in test [2] (read-out: 2B IC50, replicon 2B) was 0.0054 nM; in test [3] (replicon 1A), 0.0034 nM.

Take `COCc1ccc(C2Oc3cc(-c4cnc([C@@H]5CCCN5C(=O)[C@@H](NC(=O)OC)C(C)C)[nH]4)cc(F)c3-c3cc4cc(-c5c[nH]c([C@@H]6CCCN6C(=O)[C@@H](NC(=O)OC)C(C)C)n5)ccc4n32)s1` (single isomer, unassigned) [Compound 512]: the IC50 in test [2] (setting [7]) amounted to 0.15 nM; in test [3] (HCV replicon 1A), 0.00282 nM.

As for `COC(=O)N[C@H](C(=O)N1CCC[C@H]1c1ncc(-c2cc(F)c3c(c2)OC(c2ccc(C4CCCCC4)s2)n2c-3cc3cc(-c4cnc([C@@H]5CCCN5C(=O)[C@@H](NC(=O)OC)C(C)C)[nH]4)ccc32)[nH]1)C(C)C` (single isomer, unassigned) [Compound 528], the IC50 is 8.81 nM in test [2] (setting [7]) and 0.00883 nM in test [3] (setting [8]).

Take `COCc1ccc(C2Oc3cc(-c4cnc([C@@H]5CCCN5C(=O)[C@@H](NC(=O)OC)C(C)C)[nH]4)cc(F)c3-c3cc4cc(-c5cnc([C@@H]6CCCN6C(=O)[C@@H](NC(=O)OC)[C@@H]6C[C@@H](C)O[C@@H](C)C6)[nH]5)ccc4n32)s1` (single isomer, unassigned) [Compound 534]: the values for the IC50 in test [2] (setting [7]) and in test [3] (HCV replicon 1A) were 0.02 nM and 0.00692 nM, respectively.

Regarding `COC(=O)NC(C(=O)N1CCC[C@H]1c1ncc(-c2ccc3c(c2)cc2n3C(c3ccc(C4CC4)s3)Oc3cc(-c4cnc([C@@H]5C[C@H]6C[C@H]6N5C(=O)[C@@H](NC(=O)OC)C(C)C)[nH]4)cc(F)c3-2)[nH]1)C1C[C@@H](C)O[C@@H](C)C1` (single isomer, unassigned) [Compound 536], the IC50 in test [2] (setting [7]) was 0.0219 nM; in test [3] (setting [8]) it was 0.00272 nM.

As to `COC(=O)NC(C(=O)N1[C@@H]2C[C@@H]2C[C@H]1c1ncc(-c2ccc3c(c2)cc2n3C(c3cc4ccccc4s3)Oc3cc(-c4cnc([C@@H]5CCCN5C(=O)[C@@H](NC(=O)OC)C(C)C)[nH]4)cc(F)c3-2)[nH]1)C1C[C@@H](C)O[C@@H](C)C1` (single isomer, unassigned) [Compound 647], the figures for the IC50 in test [2] (setting [7]) and in test [3] (setting [8]) were 0.153 nM and 0.0026 nM, respectively.
